Counter-ions that a name gives are not always drawn. Like-named read-outs stand apart in the source and are kept apart here.
Legend:
[1] = tested on: proliferating TG1 GSCs; conditions: primary screen, 50 μM, 24 h
Method: (§1) Proliferating or quiescent TG1 GSCs were seeded (30 000 and 40 000 viable cells/well, respectively) into 96-well opaque bottom plates (Greiner) with the Biomek FX robot (Beckman Coulter). Each compound from the Prestwick Library was then added (final concentration: 50 μM; 1% DMSO). Each molecule was tested once. Negative control wells (12/96 per assay plate) contained cells treated with 1% DMSO (final concentration) and positive control wells (4/96 per assay plate) contained cells treated with the fungal toxin ophiobolin A (Sigma Aldrich) at 50 μM with 1% DMSO. […] Luminescence in each well was measured with the Victor3 plate reader (PerkinElmer).
(§2) Relative ATP levels in each well were determined by calculating the percentage of luminescent signal in the well with respect to the average signal measured in negative control wells.
(§3) Primary screen hits were further tested in duplicate, at two concentrations (50 and 5 μM) on proliferating and quiescent TG1 GSCs. Cell plating and treatment with compounds were as for the primary screen. Hit selection/confirmation criteria for quiescent cells were as described above.

[2] = tested on: fetal neural stem cells (f-NSC); assay: ATP-Glo dose-response, fetal neural stem cells; assay type: cell-based; conditions: Homo sapiens, Neural stem cell; ATP Glo readout, 24 h treatment
[3] = tested on: quiescent OB1 GSCs; assay: ATP-Glo dose-response, quiescent OB1 GSCs; assay type: cell-based, human; conditions: ATP Glo readout, 24 h treatment, read-out: Q OB1 GSCs EC50
Method: (§4) The EC50 value was determined for each compound by fitting the data points according to the following equation: y=Smax+Smin*(x*1/EC50)^n/1+(x*1/EC50)^n where y represents the expected response, x is the chemical compound concentration, S max and S min are the maximum and minimum responses recorded, respectively and n is the Hill coefficient. Curve fitting was performed using Microsoft Excel Solver component.
(§5) Similar dose response curves were performed using GSCs isolated from GBM of two other patients (TG16 and OB1 GSCs) grown under proliferating and quiescent conditions.

[4] = tested on: HEK 293 cells; assay: ATP-Glo dose-response, HEK 293 cells; assay type: cell-based, human; conditions: ATP Glo readout, 24 h treatment
Method: The EC50 value was determined for each compound by fitting the data points according to the following equation: y=Smax+Smin*(x*1/EC50)^n/1+(x*1/EC50)^n where y represents the expected response, x is the chemical compound concentration, S max and S min are the maximum and minimum responses recorded, respectively and n is the Hill coefficient. Curve fitting was performed using Microsoft Excel Solver component. […]

[5] = tested on: quiescent TG1 GSCs; conditions: primary screen, 50 μM, 24 h
Method: as §1, §2, §3

[6] = tested on: primary astrocytes (HA cells); assay: ATP-Glo dose-response, primary astrocytes; assay type: cell-based, human; conditions: ATP Glo readout, 24 h treatment
[7] = tested on: quiescent TG16 GSCs; assay: ATP-Glo dose-response, quiescent TG16 GSCs; assay type: cell-based, human; conditions: ATP Glo readout, 24 h treatment, read-out: Q TG16 GSCs EC50
Method: as §4, §5

[8] = tested on: proliferating TG1 GSCs; assay: ATP-Glo dose-response, proliferating TG1 GSCs; assay type: cell-based, human; conditions: Homo sapiens, ATP Glo readout, 24 h treatment, n = 3, read-out: P TG1 GSCs EC50
Method: as §4
(§6) Proliferating or quiescent TG1 cells were seeded in 50 μL of their respective media (30 000 and 40 000 viable cells/well, respectively) into 96-well opaque bottom plates (Greiner, Courtaboeuf, France). Compound treatment was performed by adding 50 μL of compound solutions (in the presence of 2% DMSO in culture medium). […] All compounds were tested in triplicate in each experiment. Independent experiments were performed at least twice for almost all of the compounds.

[9] = tested on: quiescent TG1 GSCs; assay: ATP-Glo dose-response, quiescent TG1 GSCs; assay type: cell-based, human; conditions: Homo sapiens, ATP Glo readout, 24 h treatment, n = 3, read-out: Q TG1 GSCs EC50
Method: as §4, §6

[10] = tested on: proliferating OB1 GSCs; assay: ATP-Glo dose-response, proliferating OB1 GSCs; assay type: cell-based; conditions: Homo sapiens; ATP Glo readout, 24 h treatment; read-out: P OB1 GSCs EC50
Method: as §4, §5

[11] = tested on: proliferating TG16 GSCs; assay: ATP-Glo dose-response, proliferating TG16 GSCs; assay type: cell-based, human; conditions: ATP Glo readout, 24 h treatment, read-out: P TG16 GSCs EC50
Method: as §4, §5

Compound	Activity on proliferating TG1 GSCs (hit compounds reducing ATP levels) [1]	EC50 [2] [µM]	EC50 ([3]; Homo sapiens) [µM]	EC50 ([4]; Homo sapiens, HEK293) [µM]	Activity on quiescent TG1 GSCs (hit compounds reducing ATP levels) [5]	EC50 ([6]; Homo sapiens, Astrocyte) [µM]	EC50 ([7]; Homo sapiens) [µM]	EC50 ([8]; 24 h) [µM]	EC50 ([9]; 24 h) [µM]	EC50 [10] [µM]	EC50 ([11]; Homo sapiens) [µM]	EC50 [8] [µM]	EC50 [9] [µM]	EC50 [3] [µM]	EC50 [4] [µM]	EC50 [6] [µM]	EC50 [7] [µM]	EC50 [11] [µM]
COc1ccc(CCN2CCC(Nc3nc4ccccc4n3Cc3ccc(F)cc3)CC2)cc1 [Astemizole]	yes	6.3 ± 0.2	–	–	–	–	–	–	–	–	–	–	–	–	–	–	–	–
Cc1c2ccncc2c(C)c2c1[nH]c1ccccc12 [Ellipticine]	yes	7 ± 2	30 ± 9	13 ± 2	yes	5 ± 1	56 ± 10	13 ± 1	19 ± 5	8 ± 1	13 ± 1	–	–	–	–	–	–	–
C=C(CC)C(=O)c1ccc(OCC(=O)O)c(Cl)c1Cl [Ethacrynic acid]	–	21 ± 11	24 ± 3	> 100	yes	> 100	12 ± 2	81 ± 11	41 ± 11	60 ± 20	> 100	–	–	–	–	–	–	–
CCOC(=O)C1=C(C)NC(C)=C(C(=O)OC)C1c1cccc(Cl)c1Cl (stereo not shown) [Felodipine]	yes	59 ± 12	41 ± 6	55 ± 2	yes	36 ± 6	33 ± 3	38 ± 1	30 ± 3	43 ± 5	39 ± 4	–	–	–	–	–	–	–
CC(NCCC(c1ccccc1)c1ccccc1)c1ccccc1 (stereo not shown) [Fendiline hydrochloride]	–	11 ± 1	48 ± 9	34 ± 9	yes	42 ± 8	45 ± 16	22 ± 1	32 ± 1	40 ± 13	42 ± 1	–	–	–	–	–	–	–
CC[C@H](C)[C@H]1O[C@]2(CC[C@@H]1C)C[C@@H]1C[C@@H](C/C=C(\C)[C@@H](O[C@H]3C[C@H](OC)[C@@H](O[C@H]4C[C@H](OC)[C@@H](O)[C@H](C)O4)[C@H](C)O3)[C@@H](C)/C=C/C=C3\CO[C@@H]4[C@H](O)C(C)=C[C@@H](C(=O)O1)[C@]34O)O2 [Ivermectin]	yes	4 ± 1	7 ± 2	13 ± 1	yes	3 ± 1	6 ± 2	–	–	3 ± 1	1.5 ± 0.2	3 ± 1	4 ± 1	–	–	–	–	–
O=c1cc(-c2ccc(O)c(O)c2)oc2cc(O)cc(O)c12 [Luteolin, 3',4',5,7-tetrahydroxy-flavone]	–	70 ± 36	18 ± 4	> 100	yes	> 100	34 ± 4	> 100	20 ± 2	> 100	> 100	–	–	–	–	–	–	–
C#C[C@]1(O)CC[C@H]2[C@@H]3CCC4=CCCC[C@@H]4[C@H]3CC[C@@]21C [Lynestrenol]	yes	23 ± 5	56 ± 10	57 ± 8	–	20 ± 1	28 ± 6	36 ± 2	43 ± 8	26 ± 5	32 ± 2	–	–	–	–	–	–	–
CC(Cc1ccccc1)NCCC(c1ccccc1)c1ccccc1 (stereo not shown) [Prenylamine lactate]	yes	9 ± 2	49 ± 4	25 ± 6	yes	30 ± 2	42 ± 8	22 ± 3	27 ± 3	30 ± 7	32 ± 2	–	–	–	–	–	–	–
CC(=O)[C@H]1CC[C@H]2[C@@H]3CCC4=CC(=O)CC[C@]4(C)[C@H]3CC[C@]12C [Progesterone]	–	> 100	23 ± 11	36 ± 10	yes	> 100	25 ± 9	> 100	25 ± 11	89 ± 29	75 ± 6	–	–	–	–	–	–	–
CCCCCCCCNC(C)C(O)c1ccc(SC(C)C)cc1 (stereo not shown) [Suloctidil]	yes	5 ± 1	20 ± 4	10 ± 1	yes	11 ± 1	14 ± 6	11 ± 1	13 ± 1	15 ± 2	13.5 ± 0.1	–	–	–	–	–	–	–
OCCN1CCN(CC/C=C2/c3ccccc3Sc3ccc(Cl)cc32)CC1 [Zuclopenthixol hydrochloride]	yes	13 ± 1	> 100	29 ± 1	–	12 ± 1	48 ± 18	20 ± 3	52 ± 3	27 ± 9	29 ± 5	–	–	–	–	–	–	–
Beta-Escin	yes	–	–	–	yes	–	–	–	–	–	–	–	–	6 ± 1	31 ± 1	7 ± 1	8 ± 1	6 ± 1

Source: article PMC4536076, “Chemical Library Screening and Structure-Function Relationship Studies Identify Bisacodyl as a Potent and Selective Cytotoxic Agent Towards Quiescent Human Glioblastoma Tumor Stem-Like Cells” (PLoS ONE, 2015)
